System: hPSC-derived beta cells
Assay: Perfusion assay of dynamic human insulin secretion in vitro
Assay type: cell-based
Conditions: human insulin ELISA
Method: Mature beta cells are functionally defined by their rapid response to elevated glucose. Secretion of human insulin by beta cells at the end of BC step 2 was measured as repeated responses to 20 mM glucose±1 μM exendin-4 or ±the anti-diabetic sulfonylurea compound Tolbutamide within a perfusion system.
Briefly, groups of 300 hand-picked, clusters of hESC- or hiPSC-derived cell clusters were suspended with beads (Bio-Rad #150-4124) in plastic chambers of Biorep PERFUSION SYSTEM (Biorep #PERI-4.2). Under temperature- and CO2-controlled conditions, the cells were perfused at 0.5 ml min-1 with a Krebs buffer. Prior to sample collection, cells were equilibrated under basal (2 mM glucose) conditions for 1 h. During perfusion cells were exposed to repeated challenges with 20 mM glucose±1 μM exendin-4 or ±100 μM Tolbutamide. At the end of perfusion, cells were exposed to cAMP-elevating agents on top of 20 mM glucose. Insulin secretion was measured by human insulin ELISA (Mercodia).

Which “effect on insulin secretion” value (100 μM Tolbutamide with 20 mM glucose, day 7 of BC step 2) does the source give for `CCCCNC(=O)NS(=O)(=O)c1ccc(C)cc1` [tolbutamide, Tolbutamide] here?
The value was “significant additive effect”.

With exendin-4 as the compound, how does the “level of insulin secretion” value (1 μM exendin-4 with 20 mM glucose, day 3 and day 7 of BC step 2) read?
Its value is “increased the level of insulin secretion”.
